Test results reported in patent publication US20230114241A1, “METHODS OF TREATING EPILEPSY USING THE SAME” (Trevena, Inc., priority 2019, published 2023).

The compounds below were run against human sphingosine-1-phosphate receptor 1 (S1P1) (Homo sapiens, UniProt P21453) (assay: Inhibition of cAMP production (HTRF cAMP HiRange), S1P1 CHO-K1 cells). Conditions: inhibition of cAMP production, S1P1; read-out: hS1P1 CAMP pEC50 (converted).
Format: cell-based
Summary of the method: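 Intracellular cAMP changes read by TR-FRET (HTRF HiRange, 1 h room temperature) after 30 min compound exposure at 37 °C. Cells: overnight-plated CHO-K1 stably expressing tagged human S1P1 with EA-β-arrestin2. Responses normalized to fingolimod.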

Sequence of human sphingosine-1-phosphate receptor 1 (S1P1) (P21453 whole entry): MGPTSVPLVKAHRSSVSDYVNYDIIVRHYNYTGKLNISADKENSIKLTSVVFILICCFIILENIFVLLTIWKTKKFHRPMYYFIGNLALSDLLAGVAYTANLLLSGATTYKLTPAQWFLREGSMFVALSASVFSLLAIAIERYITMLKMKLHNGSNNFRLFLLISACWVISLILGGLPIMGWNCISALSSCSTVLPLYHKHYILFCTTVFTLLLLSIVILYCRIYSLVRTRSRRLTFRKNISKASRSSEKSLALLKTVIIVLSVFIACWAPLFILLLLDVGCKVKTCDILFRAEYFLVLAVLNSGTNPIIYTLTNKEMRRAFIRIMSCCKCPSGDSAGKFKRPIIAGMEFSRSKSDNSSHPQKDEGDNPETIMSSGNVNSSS

| EC50 [nM] | SMILES |
| --- | --- |
| > 316 | Cc1ccccc1-c1c[nH]c(-c2ccc3c(c2)nnn3C(C)C)c1 [Compound 516, 5-[4-(2-methylphenyl)-1H-pyrrol-2-yl]-1-(propan-2-yl)-1H-1,2,3-benzotriazole] |
| < 316 | CC(C)Nc1ccc(-c2nc(-c3ccc4sc(N)nc4c3)no2)cc1C#N [Compound 441, 5-(3-(2-aminobenzo[d]thiazol-5-yl)-1,2,4-oxadiazol-5-yl)-2-(isopropylamino) benzonitrile] |
| < 316 | Cc1ccsc1-c1nc(-c2ccc3c(c2)nnn3C(C)(C)CO)no1 [Compound 611, 2-methyl-2-(5-(5-(3-methylthiophen-2-yl)-1,2,4-oxadiazol-3-yl)-1H-benzo[d] [1,2,3]triazol-1-yl)propan-1-ol] |
| > 316 | CC(C)(O)Cn1nnc2cc(-c3nc(-c4cocn4)no3)ccc21 [Compound 570, 2-methyl-1-{5-[3-(1,3-oxazol-4-yl)-1,2,4-oxadiazol-5-yl]-1H-1,2,3-benzotriazol-1-yl}propan-2-ol] |
| < 316 | Cc1cccc2oc(-c3ccc4c(c3)nnn4C(C)C)nc12 [Compound 418, 2-(1-isopropyl-1H-benzo[d][1,2,3]triazol-5-yl)-4-methyl-benzo[d]oxazole] |
| < 316 | COc1cccc2nc(-c3ccc4c(c3)nnn4C(C)C)oc12 [Compound 515, 2-(1-isopropyl-1H-benzo[d][1,2,3]triazol-5-yl)-7-methoxy-benzo[d]oxazole] |
| < 316 | COc1cc(NC(C)=O)ccc1-c1noc(-c2ccc3c(c2)nnn3C(C)C)n1 [Compound 532, N-(3-methoxy-4-{5-[1-(propan-2-yl)-1H-1,2,3-benzotriazol-5-yl]-1,2,4-oxadiazol-3-yl}phenyl)acetamide] |
| < 316 | CC(C)Nc1ccc(-c2ccc(-c3ccc4c(c3)nnn4C(C)C)cc2)cc1C#N [Compound 507, 4′-(1-isopropyl-1H-benzo[d][1,2,3]triazol-5-yl)-4-(isopropylamino)-[1,1′-biphenyl]-3-carbonitrile] |
| < 316 | COc1cccc2oc(-c3ccc4c(c3)nnn4CC(C)C)nc12 [Compound 450, 2-(1-isobutyl-1H-benzo[d][1,2,3]triazol-5-yl)-4-methoxy-benzo[d]oxazole] |
| > 316 | COc1ccccc1-c1nc(-c2ccc3c(c2)nnn3C(C)(C)CO)no1 [Compound 623, 2-(5-(5-(2-methoxy-phenyl)-1,2,4-oxadiazol-3-yl)-1H-benzo[d][1,2,3]triazol-1-yl)-2-methyl-propan-1-ol] |
| > 316 | CC(C)n1nnc2cc(-c3nc(-c4nccn4C)no3)ccc21 [Compound 569, 5-[3-(1-methyl-1H-imidazol-2-yl)-1,2,4-oxadiazol-5-yl]-1-(propan-2-y1)-1H-1,2,3-benzotriazole] |

Same assay, conditions: inhibition of cAMP production; potency; read-out: hS1P1 CAMP pEC50 (converted)

| EC50 [nM] | SMILES |
| --- | --- |
| > 316 | Clc1ccc(-c2noc(-c3ccc4c(c3)nnn4C3CCOCC3)n2)s1 [Compound 82, 5-[3-(5-chlorothiophen-2-yl)-1,2,4-oxadiazol-5-yl]-1-(oxan-4-yl)-1H-1,2,3-benzotriazole] |
| > 316 | O=C1CC2(CCOCC2)Oc2ccc(-c3nc(-c4cccnc4)no3)cc21 [Compound 214, 6-[3-(pyridin-3-yl)-1,2,4-oxadiazol-5-yl]-3,4-dihydrospiro[1-benzopyran-2,4′-oxane]-4-one] |
| < 316 | CC(C)Nc1ccc(-c2nc(-c3ccc4c(c3)CC(=O)N4)no2)cc1C#N [Compound 107, 2-(isopropylamino)-5-(3-(2-oxoindolin-5-yl)-1,2,4-oxadiazol-5-yl)benzonitrile] |
| > 316 | CC(C)n1nnc2cc(-c3noc(C4CCC(F)(F)CC4)n3)ccc21 [Compound 125, 5-[5-(4,4-difluoro-cyclohexyl)-1,2,4-oxadiazol-3-yl]-1-(propan-2-yl)-1H-1,2,3-benzotriazole] |
| < 316 | CC(C)n1ncc2cc(-c3nc(-c4ccccc4Br)no3)ccc21 [Compound 332, 3-(2-bromophenyl)-5-(1-isopropyl-1H-indazol-5-yl)-1,2,4-oxadiazole] |
| > 316 | OCCn1nnc2cc(-c3noc(-c4ccccc4Br)n3)ccc21 [Compound 238, 2-(5-(5-(2-bromo-phenyl)-1,2,4-oxadiazol-3-yl)-1H-benzo[d][1,2,3]triazol-1-yl)ethanol] |
| > 316 | Cc1oc(-c2ccc3c(c2)nnn3C(C)C)nc1-c1ccccc1 [Compound 247, 5-(5-methyl-4-phenyl-1,3-oxazol-2-yl)-1-(propan-2-yl)-1H-1,2,3-benzotriazole] |
| > 316 | COc1ccccc1-c1noc(-c2ccc3c(c2)nnn3C2CCOCC2)n1 [Compound 231, 5-[3-(2-methoxy-phenyl)-1,2,4-oxadiazol-5-yl]-1-(oxan-4-yl)-1H-1,2,3-benzotriazole] |
| < 316 | COc1ccccc1-c1noc(-c2ccc3c(c2)nnn3C2CC2)n1 [Compound 173, 1-cyclopropyl-5-[3-(2-methoxyphenyl)-1,2,4-oxadiazol-5-yl]-1H-1,2,3-benzotriazole] |
| > 316 | COc1cccc(OC)c1-c1noc(-c2ccc3c(cnn3C(C)C)c2)n1 [Compound 335, 3-(2,6-dimethoxy-phenyl)-5-(1-isopropylindazol-5-yl)-1,2,4-oxadiazole] |
| > 316 | CC(C)n1nnc2cc(-c3nc(-c4ccc5nncn5c4)no3)ccc21 [Compound 128, 1-(propan-2-yl)-5-(3-{[1,2,4]triazolo[4,3-a]pyridin-6-yl}-1,2,4-oxadiazol-5-yl)-1H-1,2,3-benzotriazole] |
| > 316 | CC(C)n1nnc2cc(-c3nc(-c4ccc(OCc5ccccc5)c(C(F)(F)F)c4)no3)ccc21 [Compound 296, 5-{3-[4-(benzyloxy)-3-(trifluoromethyl)phenyl]-1,2,4-oxadiazol-5-yl}-1-(propan-2-yl)-1H-1,2,3-benzotriazole] |
| < 316 | CC(C)Nc1ccc(-c2nnc(-c3ccc4[nH]ncc4c3)o2)cc1C#N [Compound 351, 5-[5-(1H-indazol-5-yl)-1,3,4-oxadiazol-2-yl]-2-[(propan-2-yl)amino]benzonitrile] |
| < 316 | CCC1(CC)CC(=O)c2cc(-c3nc(-c4ccc(NS(C)(=O)=O)cc4)no3)ccc2O1 [Compound 262, N-(4-(5-(2,2-diethyl-4-oxochroman-6-yl)-l,2,4-oxadiazol-3-yl)phenyl)methane-sulfonamide] |
| > 316 | COc1cccc(-c2noc(-c3ccc4c(c3)nnn4C3CCCC3)n2)n1 [Compound 124, 1-cyclopentyl-5-[3-(6-methoxypyridin-2-yl)-1,2,4-oxadiazol-5-yl]-1H-1,2,3-benzotriazole] |
| > 316 | CC(C)n1ccc2cc(-c3nc(-c4ccccc4OC(F)(F)F)no3)ccc21 [Compound 321, 5-(1-isopropyl-1H-indol-5-yl)-3-(2-(trifluoro-methoxy)phenyl)-1,2,4-oxadiazole] |
| < 316 | CCC1(CC)CC(=O)c2cc(-c3nc(-c4ccc(N)cc4)no3)ccc2O1 [Compound 256, 6-(3-(4-amino-phenyl)-1,2,4-oxadiazol-5-yl)-2,2-diethylchroman-4-one] |
| > 316 | CC(C)n1nnc2cc(-c3noc(-c4ccc(COc5ccccc5)cc4)n3)ccc21 [Compound 131, 3-(1-isopropyl-1H-benzo[d][1,2,3]triazol-5-yl)-5-(4-(phenoxy-methyl)phenyl)-1,2,4-oxadiazole] |
| < 316 | CC1(C)CCC2(CC1)CC(=O)c1cc(-c3nc(-c4ccncc4)no3)ccc1O2 [Compound 254, 4′,4′-dimethyl-6-[3-(pyridin-4-yl)-1,2,4-oxadiazol-5-yl]-3,4-dihydrospiro[1-benzopyran-2,1′-cyclohexane]-4-one] |
| > 316 | N#Cc1cc(-c2nc(-c3ccc4c(c3)CCC(=O)N4)no2)ccc1N [Compound 345, 2-amino-5-[3-(2-oxo-1,2,3,4-tetrahydro-quinolin-6-yl)-1,2,4-oxadiazol-5-yl]benzonitrile] |
| < 316 | N#Cc1cc(-c2nnc(-c3ccc4[nH]cnc4c3)o2)ccc1NCC(F)F [Compound 359, 5-[5-(1H-1,3-benzo-diazol-5-yl)-1,3,4-oxadiazol-2-yl]-2-[(2,2-difluoroethyl)amino] benzonitrile] |
| > 316 | Cn1nnc2cc(-c3noc(-c4ccccc4Br)n3)ccc21 [Compound 73, 5-(2-bromophenyl)-3-(1-methyl-1H-benzo[d][1,2,3]triazol-5-yl)-1,2,4-oxadiazole] |
| < 316 | Cc1ccccc1-c1noc(-c2ccc3c(c2)nnn3C2CCCC2)n1 [Compound 175, 1-cyclopentyl-5-[3-(2-methylphenyl)-1,2,4-oxadiazol-5-yl]-1H-1,2,3-benzotriazole] |
| > 316 | CCC1(CC)CC(=O)c2cc(-c3nc(-c4ccc(OC)nc4)no3)ccc2O1 [Compound 301, 2,2-diethyl-6-[3-(6-methoxy-3-pyridyl)-1,2,4-oxadiazol-5-yl]chroman-4-one] |
| < 316 | CC(C)n1ncc2cc(-c3nc(-c4cccc5c4OCCC5)no3)ccc21 [Compound 337, 3-chroman-8-yl-5-(1-isopropylindazol-5-yl)-1,2,4-oxadiazole] |
| > 316 | COc1ccc(-c2noc(-c3ccc4c(c3)nnn4C3CCCC3)n2)c2ccccc12 [Compound 91, 1-cyclopentyl-5-[3-(4-methoxynaphthalen-1-yl)-1,2,4-oxadiazol-5-yl]-1H-1,2,3-benzotriazole] |
| > 316 | CC(C)n1nnc2cc(-c3nc(-c4ccc5ccccc5n4)no3)ccc21 [Compound 168, 2-{5-[1-(propan-2-yl)-1H-1,2,3-benzotriazol-5-yl]-1,2,4-oxadiazol-3-yl}quinoline] |
| > 316 | CCC1(CC)CC(=O)c2cc(-c3nc(-c4ccnc(OC)c4)no3)ccc2O1 [Compound 38, 2,2-diethyl-6-(3-(2-methoxypyridin-4-yl)-1,2,4-oxadiazol-5-yl)chroman-4-one] |
| < 316 | COc1ccccc1-c1noc(-c2ccc3c(c2)nnn3C(C)(C)C)n1 [Compound 207, 1-tert-butyl-5-[3-(2-methoxyphenyl)-1,2,4-oxadiazol-5-yl]-1H-1,2,3-benzotriazole] |
